Experimental data reported in PMC9404946, “Antioxidant Capacities and Enzymatic Inhibitory Effects of Different Solvent Fractions and Major Flavones from Celery Seeds Produced in Different Geographic Areas in China” (Antioxidants, 2022).
Marks after values point to notes of the source that are not given here.

Tests used:
[1] = ABTS radical scavenging assay; type: biochemical
Method: The ABTS radical scavenging activity of each fraction was measured based on the method with slight modifications. A 28 mM ABTS and a 9.6 mM potassium persulfate working solution were prepared, mixed in equal volumes, and the mixture was left to stand for 16 h at room temperature, protected from light. The working solution was diluted with EtOH to reach an absorbance of 0.70 ± 0.02 at 740 nm and used for further experiments. Different extracts or compounds (20 μL) concentrations were mixed with the working solution (180 μL). The mixture was incubated at room temperature for 15 min, and the absorbance was recorded at 734 nm (As). DMSO and ABTS reagents in the same volume were mixed to measure the absorbance as the control (A0). Then, the antioxidant activity of the mixture was determined by calculating the decrease using the following formula:ABTS radical inhibiting activity (%) = (A0 − As)/A0 × 100, where A0 is the absorbance of the control (untreated group), and As is the absorbance of the test sample. BHT and VC were used as the positive control.

[2] = Cupric reducing antioxidant capacity (CUPRAC); type: biochemical; conditions: main flavonoids (Table 5)
Method: The cupric ion reducing antioxidant capacity (CUPRAC) was measured according to the method of Drouet et al. with modifications. Briefly, 50 μL of the extract sample was mixed with 150 μL of the CUPRAC solution (composed of 10 mM CuCl2, 7.5 mM neocuproine, and 1 M NH4Ac buffer pH 7; ratio 1:1:1 (v/v/v)). After incubation for 15 min at room temperature, the absorbance value at 450 nm of the reaction mixture was measured. The results were reported as […] of Trolox equivalents (TE) per gram of extract (mg TE/g extract) (calibration curve from different concentrations: 0–70 μg/mL; Absorbance: y = 0.0279x + 0.0126, R² = 0.9997, Figure S2J).

[3] = target: T1, porcine pancreatic α-amylase (Sus scrofa, UniProt P00690); assay: α-Amylase inhibitory activity (starch-iodine); type: biochemical
T1 construct: purchased Shanghai Yuanye Biotechnology Co. (Shanghai, China)
T1 sequence (P00690 16-511): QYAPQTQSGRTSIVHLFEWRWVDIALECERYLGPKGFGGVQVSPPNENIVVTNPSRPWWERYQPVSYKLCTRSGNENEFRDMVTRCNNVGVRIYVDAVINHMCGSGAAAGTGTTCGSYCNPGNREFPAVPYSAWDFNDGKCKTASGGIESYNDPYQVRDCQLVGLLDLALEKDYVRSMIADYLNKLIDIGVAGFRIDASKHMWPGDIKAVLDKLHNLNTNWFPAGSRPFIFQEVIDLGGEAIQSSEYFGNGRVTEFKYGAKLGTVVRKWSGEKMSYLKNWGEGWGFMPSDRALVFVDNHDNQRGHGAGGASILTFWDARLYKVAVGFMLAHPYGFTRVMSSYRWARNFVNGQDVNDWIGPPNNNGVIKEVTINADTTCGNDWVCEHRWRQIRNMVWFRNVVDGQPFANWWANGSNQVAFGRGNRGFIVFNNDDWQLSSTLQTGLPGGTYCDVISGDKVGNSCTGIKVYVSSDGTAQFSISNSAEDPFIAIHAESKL
Text: (§1) Butylated hydroxytoluene (BHT) and ethylene diamine tetraacetic acid (EDTA) were purchased from Sigma-Aldrich (Shanghai, China). […] Methanol (MeOH), ethanol (EtOH), and dichloromethane (DCM) were purchased from Tianjin Fuyu (Tianjin, China). Ammonium acetate (NH4Ac), iodine (I2), potassium iodide (KI), soluble-starch, acetic acid (AcOH), n-butanol (nBuOH), and silica sand were obtained from Guoyao (Shanghai, China). The products were purified by flash column chromatography on 200–300 mesh silica gel purchased from Xinnuo Huagong (Yantai, Shandong, China). Methanol and acetonitrile of the high-performance liquid chromatography (HPLC) grade were purchased from Thermo Fisher Scientific (Waltham, MA, USA). DMSO-D6 was purchased from J&K (Beijing, China).

[4] = Metal chelating activity on ferrous ions (ferrozine); type: biochemical; conditions: for Metal Chelating: main flavonoids (Table 5)
Method: The iron-chelating activity of each fraction was estimated by the method described by Sapatinha et al. with modifications. Briefly, 50 μL of each sample solution and 50 μL of 1 mM FeCl2 were mixed. Then, the reaction was initiated by adding 100 μL of 2.5 mM ferrozine solution. The mixture was kept at room temperature for 10 min. The absorbance of the resulting solution was measured at 562 nm. The results are expressed as milligrams of ethylenediaminetetraacetic acid (EDTA) equivalent per gram of extract (mg EDTAE/g extract) (calibration curve from different concentrations: 0–55 μg/mL; Absorbance: y = −0.0477x + 3.0616, R² = 0.9966, Figure S2K).

[5] = Ferric reducing antioxidant power (FRAP); type: biochemical
Method: The measurement of FRAP was based on previous studies with slight modifications. A total of 180 uL of FRAP working solution (acetate buffer (pH 3.6): ferric chloride solution (20 mM): TPTZ solution (10 mM) = 10:1:1) was mixed with 20 μL of sample solution and incubated for 30 min at room temperature. The absorbance was measured at 593 nm. The standard curve was linear from 0 to 30 μg Trolox with an R^2 value of 0.9999 (Absorbance: y = 0.0943x + 0.0126, Figure S2I). The results are expressed as milligrams of TE/g dry weight.

[6] = target: Saccharomyces cerevisiae α-glucosidase; assay: α-Glucosidase inhibitory activity assay (PNPG substrate); type: biochemical; conditions: main flavonoids and acarbose (Table 5)
Text: as §1
The α-glucosidase inhibition test was performed as previously described with some variations. PBS (0.1 M, pH = 6.8), α-glucosidase (5 U/mL), and PNPG (5 mM) were prepared and stored at 4 °C for further use. In total, 20 μL of different concentration sample solution (DMSO dissolved) or DMSO, 60 μL of PBS, and 20 μL of α-Glucosidase (0.5 U/mL) were added to a 96-well plate and incubated for 20 min at 37 °C. Then, 20 μL of PNPG (5 mM) solution was added and incubated for another 15 min at 37 °C. Subsequently, 80 μL of Na2CO3 (0.1 M) solution was added to terminate the reaction. […] Inhibition (%) was calculated based on absorbance with the following formula: Inhibitor (%) = (A0 − As)/A0 × 100%, where A0 is the absorbance of the blank group, and As is the absorbance of the test group. The IC50 values were calculated using GraphPad Prism 8.0 (GraphPad Software, Inc., La Jolla, CA, USA) to evaluate the α-glucosidase inhibition activity of the tested compounds.

[7] = DPPH radical scavenging assay; type: biochemical; conditions: main flavonoids and positive controls (Table 5)
Method: The scavenging ability of the free radical DPPH was investigated as described with slight modification. The sample solution (100 μL) and DPPH reagent (0.11 mg/mL, 100 μL) were mixed and incubated (30 min) at room temperature and in darkness. Then, a multi-detection microplate reader was used to measure the absorbance at 517 nm (As). The control group was mixed with DMSO and DPPH reagent in the same volume (A0). A formula was used to calculate the DPPH radical scavenging activity:DPPH radical scavenging activity (%) = [(A0 − As)/A0] × 100, where A0 is the absorbance of the control (untreated group), and As is the absorbance of the test sample. BHT and VC were used as the positive control.

α-amylase = target: α-amylase; parameters: method as in PMID 32344340; conditions: previously reported; cited from earlier work
[8] = main flavonoids and positive controls (Table 5)
[9] = main flavonoids and positive control (Table 5)
[10] = solvent fractions and positive controls (Table 3 and text)
[11] = solvent fractions and positive control, Trolox equivalent

SMILES | ABTS IC50 [1, 8] | CUPRAC [2] | IC50 [3] [µM] | Metal Chelating [4] | FRAP [5, 9] | IC50 [6] [µM] | DPPH IC50 [7] | Fe2+ chelating capacity [4] [mg EDTA/g] | α-amylase inhibitory activity IC50 (α-amylase) [µg/mL] | ABTS IC50 [1, 10] | FRAP [5, 11]
O=c1cc(-c2ccc(O)cc2)oc2cc(O[C@@H]3O[C@H](CO)[C@@H](O)[C@H](O)[C@H]3O)cc(O)c12 [Apigenin-7-O-Glucoside] | 461.00 ± 11.04 ^b μg/mL | 33.45 ± 0.51 ^g mg TE/g | 1740 ± 40 | 5.69 ± 0.19 ^h mg EDTAE/g | 25.90 ± 0.49 ^i mg TE/g | 77.5 ± 4.84 | 4885.33 ± 56.01 ^b μM |  |  |  | 
O=c1cc(-c2ccc(O)cc2)oc2cc(O)cc(O)c12 [Apigenin] | 223.63 ± 10.35 ^c μg/mL | 76.44 ± 1.83 ^f mg TE/g |  | 54.20 ± 1.28 ^c mg EDTAE/g | 59.41 ± 0.24 ^h mg TE/g | 80 ± 0.85 | 1292.00 ± 31.00 ^d μM | 54.20 |  |  | 
O=c1cc(-c2ccc(O)cc2)oc2cc(O[C@@H]3O[C@H](CO)[C@@H](O)[C@H](O)[C@H]3O[C@@H]3OC[C@](O)(CO)[C@H]3O)cc(O)c12 [Apiin] | 1055.33 ± 24.68 ^a μg/mL | 25.26 ± 0.18 ^g mg TE/g |  | 17.15 ± 1.37 ^f mg EDTAE/g | 5.97 ± 1.49 ^j mg TE/g | 199 ± 14.9 | 7686.33 ± 200.18 ^a μM |  | 1084 |  | 
Cc1cc(C(C)(C)C)c(O)c(C(C)(C)C)c1 [BHT, Butylated hydroxytoluene, reference compound] | 5.72 ± 0.10 ^h,i μg/mL |  |  |  | 406.39 ± 4.65 ^d mg TE/g |  | 39.13 ± 0.93 ^g μM |  |  | 3.79 ± 0.04 ^l μg/mL | 406.39 mg TE/g
COc1cc(-c2cc(=O)c3c(O)cc(O[C@@H]4O[C@H](CO)[C@@H](O)[C@H](O)[C@H]4O)cc3o2)ccc1O [Chrysoeriol-7-O-glucosid] | 46.64 ± 1.24 ^d μg/mL | 495.51 ± 6.64 ^d mg TE/g | 1860 ± 20 | 8.22 ± 0.84 ^g mg EDTAE/g | 203.35 ± 6.33 ^f mg TE/g | 39.8 ± 1.05 | 848.23 ± 143.61 ^e μM |  |  |  | 
COc1cc(-c2cc(=O)c3c(O)cc(O)cc3o2)ccc1O [Chrysoeriol] | 16.69 ± 0.55 ^f μg/mL | 947.43 ± 5.72 ^b mg TE/g |  | 36.49 ± 0.22 ^d mg EDTAE/g | 337.96 ± 0.88 ^e mg TE/g |  | 580.10 ± 35.54 ^f μM | 36.49 |  |  | 
O=c1cc(-c2ccc(O)c(O)c2)oc2cc(OC3OC(CO)C(O)C(O)C3OC3OCC(O)(CO)C3O)cc(O)c12 (stereo not drawn) [Graveobioside A] | 6.88 ± 0.05 ^h μg/mL | 887.17 ± 8.95 ^c mg TE/g |  | 89.98 ± 0.42 ^a mg EDTAE/g | 882.04 ± 0.43 ^b mg TE/g | 104 ± 5.75 | 12.47 ± 0.08 ^h μM |  |  |  | 
COc1cc(-c2cc(=O)c3c(O)cc(OC4OC(CO)C(O)C(O)C4OC4OCC(O)(CO)C4O)cc3o2)ccc1O (stereo not drawn) [Graveobioside B] | 29.43 ± 1.33 ^e μg/mL | 328.10 ± 14.10 ^e mg TE/g |  | 21.32 ± 1.51 ^e mg EDTAE/g | 166.87 ± 2.97 ^g mg TE/g | 104 ± 1.85 | 3266.33 ± 365.08 ^c μM |  |  |  | 
O=c1cc(-c2ccc(O)c(O)c2)oc2cc(O[C@@H]3O[C@H](CO)[C@@H](O)[C@H](O)[C@H]3O)cc(O)c12 [Luteolin-7-O-glucoside] | 9.41 ± 0.42 ^g μg/mL | 955.05 ± 3.64 ^b mg TE/g |  | 8.51 ± 0.21 ^g mg EDTAE/g | 830.71 ± 8.52 ^c mg TE/g | 49.9 ± 2.85 | 9.28 ± 0.06 ^i μM |  |  |  | 
O=c1cc(-c2ccc(O)c(O)c2)oc2cc(O)cc(O)c12 [Luteolin] | 4.58 ± 0.02 ^i,j μg/mL | 1502.63 ± 15.92 ^a mg TE/g | 2110 ± 10 | 88.44 ±0.64 ^b mg EDTAE/g | 1025.12 ± 10.78 ^a mg TE/g | 58.8 ± 2.97 | 4.65 ± 0.16 ^j μM | 88.44 |  |  | 
O=C1O[C@H]([C@@H](O)CO)C(O)=C1O [VC, ascorbic acid, reference compound] | 3.79 ± 0.04 ^j μg/mL |  |  |  |  |  | 5.32 ± 0.11 ^j μM |  |  | 5.72 ± 0.10 ^l μg/mL | 406.39 ± 4.65 ^d mg TE/g
